The values that follow come from patent US11084823B2, “Substituted pyrrolo[2,1-f][1,2,4]triazines as kinase inhibitors” (Daewoong Pharmaceutical Co., Ltd., priority 2017, dated 2021).

The term pIC50 denotes the negative decadic logarithm of the IC50, by convention in mol/L.

Experiment [1] addresses Recombinant purified human JAK3 (Homo sapiens (Human), UniProt P52333). Kind of experiment: JAK3 kinase inhibitory activity, ADP-Glo kinase assay kit (Promega V9441). Format: biochemical. The settings on record: ATP 5 uM, 4 ng JAK3 per reaction, 1 hour at 30° C., chemiluminescence. How it is done:
(§1) JAK3 and BTK kinase inhibitory activities were measured for the compounds prepared in the above Examples through in vitro analysis on the ADP Glow (Glo) platform.
(§2) Specifically, the inhibitory activities of JAK3 and BTK kinase were measured using a JAK3 kinase assay kit (Promega, V9441) and a BTK kinase assay kit (Promega, V9071) which were purchased from Promega. Recombinant purified human JAK3 and BTK were diluted with 1× kinase reaction buffer (JAK3: 40 mM Tris-Cl, pH 7.5, 20 mM MgCl2, 0.1 mg/mL BSA and 50 uM DTT/BTK: 40 mM Tris-Cl, pH 7.5, 20 mM MgCl2, 0.1 mg/mL BSA, 2 mM MnCl2 and 50 uM DTT) and added to a 96 well plate (JAK3: final concentration of 4 ng per reaction/BTK: final concentration of 8 ng per reaction). […] After incubation (30° C.) for 1 hour, equivalent volume (25 uL per reaction) of ADP Glo was added and incubated (30° C.) for 40 minutes at room temperature. Then, a kinase detection reagent (50 uL per reaction) was added and incubated (30° C.) for 30 minutes at room temperature. The kinase activity was measured by chemiluminescence according to the instructions of ADP Glo kinase assay kit, and the inhibitory activity of the compounds according to the present invention was calculated.

Experiment [2] deals with Recombinant purified human BTK (Homo sapiens (Human), UniProt Q06187). As to the kind of experiment: BTK kinase inhibitory activity, ADP-Glo kinase assay kit (Promega V9071). The following applies: ATP 10 uM, 8 ng BTK per reaction, 1 hour at 30° C., chemiluminescence. Format: biochemical. How it is done:
as §1, §2
(In general: ADP-Glo turns the ADP formed in a reaction into a luminescent signal.)

pIC50: −log10 of the molar value.

Recombinant purified human JAK3, sequence (P52333 whole entry): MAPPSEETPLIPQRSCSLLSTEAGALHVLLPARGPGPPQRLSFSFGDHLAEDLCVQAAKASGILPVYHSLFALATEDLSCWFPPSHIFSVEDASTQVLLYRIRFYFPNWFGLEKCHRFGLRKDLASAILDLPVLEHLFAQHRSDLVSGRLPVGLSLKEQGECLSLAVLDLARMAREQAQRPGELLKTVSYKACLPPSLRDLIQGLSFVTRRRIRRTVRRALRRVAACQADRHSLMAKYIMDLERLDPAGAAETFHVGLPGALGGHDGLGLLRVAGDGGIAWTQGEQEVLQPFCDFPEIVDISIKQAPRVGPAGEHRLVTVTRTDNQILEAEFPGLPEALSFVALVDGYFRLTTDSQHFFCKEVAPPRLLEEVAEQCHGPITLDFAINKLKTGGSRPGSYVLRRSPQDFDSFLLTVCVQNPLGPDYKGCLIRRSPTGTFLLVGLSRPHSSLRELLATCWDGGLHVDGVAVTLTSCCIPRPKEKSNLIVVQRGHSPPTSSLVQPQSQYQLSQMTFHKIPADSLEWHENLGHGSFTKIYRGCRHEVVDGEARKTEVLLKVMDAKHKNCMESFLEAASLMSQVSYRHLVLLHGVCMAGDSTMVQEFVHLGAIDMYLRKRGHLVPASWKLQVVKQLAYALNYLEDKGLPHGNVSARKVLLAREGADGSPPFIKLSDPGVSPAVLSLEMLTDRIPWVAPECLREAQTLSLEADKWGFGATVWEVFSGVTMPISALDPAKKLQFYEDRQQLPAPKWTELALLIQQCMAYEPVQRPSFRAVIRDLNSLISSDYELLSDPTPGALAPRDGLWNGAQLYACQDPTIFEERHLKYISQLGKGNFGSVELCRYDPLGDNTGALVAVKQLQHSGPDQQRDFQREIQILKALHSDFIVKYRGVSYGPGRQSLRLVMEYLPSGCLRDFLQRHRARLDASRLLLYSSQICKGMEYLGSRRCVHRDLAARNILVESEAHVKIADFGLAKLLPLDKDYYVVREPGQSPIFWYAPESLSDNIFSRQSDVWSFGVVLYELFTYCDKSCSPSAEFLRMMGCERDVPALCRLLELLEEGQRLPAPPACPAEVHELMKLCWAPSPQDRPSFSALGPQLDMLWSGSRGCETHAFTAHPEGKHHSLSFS
Recombinant purified human BTK, sequence (Q06187 whole entry): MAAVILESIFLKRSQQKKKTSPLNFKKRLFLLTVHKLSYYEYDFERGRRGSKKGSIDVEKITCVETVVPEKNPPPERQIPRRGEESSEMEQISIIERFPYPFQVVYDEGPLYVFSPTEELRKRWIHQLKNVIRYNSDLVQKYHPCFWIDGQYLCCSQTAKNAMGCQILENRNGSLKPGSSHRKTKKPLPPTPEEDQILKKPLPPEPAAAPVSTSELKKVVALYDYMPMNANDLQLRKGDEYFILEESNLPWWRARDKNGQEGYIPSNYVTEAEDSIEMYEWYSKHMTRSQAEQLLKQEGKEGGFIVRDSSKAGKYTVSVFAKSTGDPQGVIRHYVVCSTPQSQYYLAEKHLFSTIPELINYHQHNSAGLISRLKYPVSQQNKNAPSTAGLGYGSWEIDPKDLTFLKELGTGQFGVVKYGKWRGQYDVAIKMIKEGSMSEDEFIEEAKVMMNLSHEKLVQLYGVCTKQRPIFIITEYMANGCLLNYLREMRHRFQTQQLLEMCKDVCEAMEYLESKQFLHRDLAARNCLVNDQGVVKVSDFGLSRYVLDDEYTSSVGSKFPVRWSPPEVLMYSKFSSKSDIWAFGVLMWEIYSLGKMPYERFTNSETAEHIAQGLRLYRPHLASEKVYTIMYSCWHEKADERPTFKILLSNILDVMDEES

As to `C=CC(=O)Nc1ccc(F)c(Oc2nc(Nc3ccc(N4CCN(C)CC4)cc3)nn3cccc23)c1` [Example 25, N-(4-fluoro-3-((2-((4-(4-methylpiperazin-1-yl)phenyl)amino)pyrrolo[2,1-f][1,2,4]triazin-4-yl)oxy)phenyl)acrylamide], the pIC50 in experiment [1] is 8.85; in experiment [2], 8.10.
Consider `C=CC(=O)Nc1cccc(Oc2nc(Nc3cnn(CC(F)F)c3)nn3cccc23)c1` [Example 4, N-(3-((2-((1-(2,2-difluoroethyl)-1H-pyrazol-4-yl)amino)pyrrolo[2,1-f][1,2,4]triazin-4-yl)oxy)phenyl)acrylamide], for which the pIC50 is 9.15 in experiment [1] and 7.87 in experiment [2].
With `C=CC(=O)Nc1ccc(F)c(Oc2nc(Nc3cnn(C(F)F)c3)nn3cccc23)c1` [Example 33, N-(3-((2-((1-(difluoromethyl)-1H-pyrazol-4-yl)amino)pyrrolo[2,1-f][1,2,4]triazin-4-yl)oxy)-4-fluorophenyl)acrylamide], the pIC50 in experiment [1] was 8.55; in experiment [2], 7.82.
As for `C=CC(=O)Nc1ccc(F)c(Oc2nc(Nc3cnn(C4CCOCC4)c3)nn3cccc23)c1` [Example 34, N-(4-fluoro-3-((2-((1-(tetrahydro-2H-pyran-4-yl)-1H-pyrazol-4-yl)amino)pyrrolo[2,1-f][1,2,4]triazin-4-yl)oxy)phenyl)acrylamide], the values for the pIC50 in experiment [1] and in experiment [2] were 9.30 and 8.62, respectively.
In the case of `C=CC(=O)Nc1ccc(F)c(Oc2nc(Nc3cc(C)ns3)nn3cccc23)c1` [Example 7, N-(4-fluoro-3-((2-((3-methylisothiazol-5-yl)amino)pyrrolo[2,1-f][1,2,4]triazin-4-yl)oxy)phenyl)acrylamide], the pIC50 was 9.30 in experiment [1] and 7.97 in experiment [2].
Regarding `CCC#CC(=O)Nc1ccc(F)c(Oc2nc(Nc3cnn(CC(F)F)c3)nn3cccc23)c1` [Example 49, N-(3-((2-((1-(2,2-difluoroethyl)-1H-pyrazol-4-yl)amino)pyrrolo[2,1-f][1,2,4]triazin-4-yl)oxy)-4-fluorophenyl)pent-2-ynamide], the pIC50 in experiment [1] is less than 6.40; in experiment [2], 7.52.
On to `C=CC(=O)Nc1ccc(F)c(Oc2nc(Nc3cnn(CC(F)F)c3)nn3cccc23)c1` [Example 26, N-(3-((2-((1-(2,2-difluoroethyl)-1H-pyrazol-4-yl)amino)pyrrolo[2,1-f][1,2,4]triazin-4-yl)oxy)-4-fluorophenyl)acrylamide], for which the pIC50 in experiment [1] was 9.05; in experiment [2], 8.21.
For `C=CC(=O)Nc1cccc(Oc2nc(Nc3cnn(CC)c3)nn3cccc23)c1` [Example 6, N-(3-((2-((1-ethyl-1H-pyrazol-4-yl)amino)pyrrolo[2,1-f][1,2,4]triazin-4-yl)oxy)phenyl)acrylamide], in that order: 9.30 and 8.00.
Take `C=CC(=O)Nc1ccc(F)c(Oc2nc(Nc3ccc4ncsc4c3)nn3cccc23)c1` [Example 14, N-(3-((2-((benzo[d]thiazol-6-yl)amino)pyrrolo[2,1-f][1,2,4]triazin-4-yl)oxy)-4-fluorophenyl)acrylamide]: the pIC50 in experiment [1] is 8.01; in experiment [2], 7.36.
For `C=CC(=O)Nc1cccc(Oc2nc(Nc3cnn(C)c3)nn3cccc23)c1` [Example 3, N-(3-((2-((1-methyl-1H-pyrazol-4-yl)amino)pyrrolo[2,1-f][1,2,4]triazin-4-yl)oxy)phenyl)acrylamide], in that order: 9.22 and 7.90.
Regarding `C=CC(=O)Nc1ccc(F)c(Oc2nc(Nc3ccsc3)nn3cccc23)c1` [Example 30, N-(4-fluoro-3-((2-((thiophen-3-yl)amino)pyrrolo[2,1-f][1,2,4]triazin-4-yl)oxy)phenyl)acrylamide], the pIC50 is 8.12 in experiment [1] and 7.18 in experiment [2].
Consider `C=CC(=O)Nc1ccc(Cl)c(Oc2nc(Nc3cnn(CC)c3)nn3cccc23)c1` [Example 46, N-(4-chloro-3-((2-((1-ethyl-1H-pyrazol-4-yl)amino)pyrrolo[2,1-f][1,2,4]triazin-4-yl)oxy)phenyl)acrylamide], for which the results for the pIC50 in experiment [1] and in experiment [2] were 7.25 and 6.57, respectively.
For the compound `C=CC(=O)Nc1ccc(F)c(Oc2nc(Nc3cnoc3)nn3cccc23)c1` [Example 45, N-(4-fluoro-3-(2-(isoxazol-4-ylamino)pyrrolo[2,1-f][1,2,4]triazin-4-yloxy)phenyl)acrylamide], the negative-log IC50 (pIC50) in experiment [1] was 7.49; in experiment [2], 6.69.
With `C=CC(=O)Nc1cccc(Oc2nc(Nc3ccn(C)n3)nn3cccc23)c1` [Example 20, N-(3-((2-((1-methyl-1H-pyrazol-3-yl)amino)pyrrolo[2,1-f][1,2,4]triazin-4-yl)oxy)phenyl)acrylamide], the pIC50 in experiment [1] was 7.24; in experiment [2], 6.19.
As for `C=CC(=O)Nc1cccc(Oc2nc(Nc3cc(C)ns3)nn3cccc23)c1` [Example 5, N-(3-((2-((3-methylisothiazol-5-yl)amino)pyrrolo[2,1-f][1,2,4]triazin-4-yl)oxy)phenyl)acrylamide], the pIC50 in experiment [1] is 9.22; in experiment [2], 8.06.
As for `C=CC(=O)Nc1cc(Oc2nc(Nc3cnn(CC)c3)nn3cccc23)ccc1C` [Example 47, N-(5-((2-((1-ethyl-1H-pyrazol-4-yl)amino)pyrrolo[2,1-f][1,2,4]triazin-4-yl)oxy)-2-methylphenyl)acrylamide], the results for the pIC50 in experiment [1] and in experiment [2] were 7.89 and 7.28, respectively.
For `CCn1cc(Nc2nc(Oc3cc(NC(=O)/C=C/CCl)ccc3F)c3cccn3n2)cn1` [Example 44, (E)-4-chloro-N-(3-((2-((1-ethyl-1H-pyrazol-4-yl)amino)pyrrolo[2,1-f][1,2,4]triazin-4-yl)oxy)-4-fluorophenyl)but-2-enamide], in that order: 7.00 and 6.94.
For `C=CC(=O)Nc1ccc(F)c(Oc2nc(Nc3cnn(CCN4CCOCC4)c3)nn3cccc23)c1` [Example 35, N-(4-fluoro-3-((2-((1-(2-morpholinoethyl)-1H-pyrazol-4-yl)amino)pyrrolo[2,1-f][1,2,4]triazin-4-yl)oxy)phenyl)acrylamide], in that order: 9.15 and 8.46.
For the compound `C=CC(=O)Nc1cccc(Oc2nc(Nc3ccsc3)nn3cccc23)c1` [Example 19, N-(3-((2-((thiophen-3-yl)amino)pyrrolo[2,1-f][1,2,4]triazin-4-yl)oxy)phenyl)acrylamide], the negative logarithm of the IC50 (pIC50) in experiment [1] is 8.28; in experiment [2], 7.20.
As for `C=CC(=O)Nc1ccc(F)c(Oc2nc(Nc3cnn(CC(F)(F)F)c3)nn3cccc23)c1` [Example 38, N-(4-fluoro-3-((2-((1-(2,2,2-trifluoroethyl)-1H-pyrazol-4-yl)amino)pyrrolo[2,1-f][1,2,4]triazin-4-yl)oxy)phenyl)acrylamide], the pIC50 in experiment [1] is 8.74; in experiment [2], 7.78.
In the case of `C=CC(=O)Nc1ccc(F)c(Oc2nc(Nc3cnn(C4CC4)c3)nn3cccc23)c1` [Example 1, N-(3-((2-((1-cyclopropyl-1H-pyrazol-4-yl)amino)pyrrolo[2,1-f][1,2,4]triazin-4-yl)oxy)-4-fluorophenyl)acrylamide], the pIC50 in experiment [1] is 8.96; in experiment [2], 7.87.
Consider `C=CC(=O)Nc1ccc(F)c(Oc2nc(Nc3cnn(C)c3)nn3cccc23)c1` [Example 27, N-(4-fluoro-3-((2-((1-methyl-1H-pyrazol-4-yl)amino)pyrrolo[2,1-f][1,2,4]triazin-4-yl)oxy)phenyl)acrylamide], for which the pIC50 in experiment [1] is 9.15; in experiment [2], 8.30.
